Data on eight compounds can be found in article PMC12396409, “Screening and hit evaluation of a microbial metabolite library against the pathogenic Plasmodium falciparum and Toxoplasma gondii parasites” (International Journal for Parasitology: Drugs and Drug …, 2025).

Assay [1] deals with P. falciparum 3D7 parasites. Description: P. falciparum growth inhibition assay, 1-cycle (72 h treatment), SYBR DNA staining (library screen at 2 μg/mL and dose-response). The conditions noted are these: for activity at 2 µg/mL: Plasmodium falciparum, 3D7. Type of assay: cell-based, Plasmodium falciparum.
Assay [2] concerns T. gondii RH strain (RH-Tub-eYFP) tachyzoites. Nature of the assay: microbe, parasite or virus in culture. Type of assay: cell-based, Toxoplasma gondii. The settings on record: 72 h; for percent parasite growth at 2 µg/mL: Toxoplasma gondii.
Assay [3] concerns P. falciparum 3D7 parasites. Nature of the assay: P. falciparum growth inhibition assay, 2-cycle (120 h treatment), delayed-death screen and dose-response. Type of assay: cell-based, Plasmodium falciparum. The conditions noted are these: for activity at 2 µg/mL: Plasmodium falciparum, 3D7.
Where [4] appears, read: library screen at 2 μg/mL, 72 h, % growth, replicate 1.
The mark [5] stands for this setting: library screen at 2 μg/mL, 72 h, % growth, replicate 2.
Where [6] appears, read: library screen at 2 μg/mL, % growth, replicate 1.
Setting [7] is: library screen at 2 μg/mL, % growth, replicate 2.
The mark [8] stands for this setting: library screen at 2 μg/mL, 120 h, % growth, replicate 1.
Setting [9] is: library screen at 2 μg/mL, 120 h, % growth, replicate 2.
[10] abbreviates: P. falciparum 3D7, 72 h, library screen at 2 μg/mL, % growth, replicate 1.
Where [11] appears, read: P. falciparum 3D7, 72 h, library screen at 2 μg/mL, % growth, replicate 2.
Setting [12] is: T. gondii RH, library screen at 2 μg/mL, % growth, replicate 1.
The mark [13] stands for this setting: T. gondii RH, library screen at 2 μg/mL, % growth, replicate 2.
[14] abbreviates: P. falciparum 3D7, 120 h, library screen at 2 μg/mL, % growth, replicate 1.
[15] abbreviates: P. falciparum 3D7, 120 h, library screen at 2 μg/mL, % growth, replicate 2.

Molecules are shown by their SMILES. Like-named read-outs stand apart in the source and are kept apart here.

Regarding `Cc1cc(=O)c(O)cc2c1C[C@@H]1CC(C)(C)/C=C/C[C@@]3(C)Oc4cc(O)c(=O)cc(C)c4C[C@@H]3C[C@@H](O)[C@]1(C)O2` [Eupenifeldin], in assay [1] (P. falciparum, 2 μg/mL, 72 h), the “1) Growth (%) at 72 h” value came out at 28.81%. The compound also came in with a Mean in assay [1] (P. falciparum, 72 h, 2 μg/mL, mean of both replicates, growth (% of control)) of 28.81. The compound further registered a Pf_72h_%Growth_Rep1 in assay [1] (setting [4]) of 0.51%. The Pf_72h_%Growth_Rep2 in assay [1] (setting [5]) was found to be 57.11%. Moreover, in assay [2] (setting [6]), the Tg_72h_%Growth_Rep1 amounted to 1.55%. The compound also showed a Tg_72h_%Growth_Rep2 in assay [2] (setting [7]) of 1.71%. The “2) Growth (%) at 120 h” value in assay [3] (P. falciparum, 2 μg/mL, 120 h) is 14.46%. Further, the “3) Fold change (72 h/120 h)” value in assay [3] (P. falciparum, growth at 72 h / growth at 120 h, 2 μg/mL) is 2.0. Also, the Pf_120h_%Growth_Rep1 in assay [3] (setting [8]) is reported as 3.95%. Moreover, the Pf_120h_%Growth_Rep2 in assay [3] (setting [9]) is recorded as 24.96%.

As for `COc1ccc(/C=C/C(=O)O)cc1O` [BIA-I1729], the Pf_72h_%Growth_Rep1 in assay [1] (setting [10]) was found to be 80.53%. Further, the Pf_72h_%Growth_Rep2 in assay [1] (setting [11]) amounted to 116.78%. The compound further had a Tg_72h_%Growth_Rep1 in assay [2] (setting [12]) of 136.89%. In assay [2] (setting [13]), this compound yielded a Tg_72h_%Growth_Rep2 of 92.18%. The Pf_120h_%Growth_Rep1 in assay [3] (setting [14]) is reported as 85.87%. For the same compound, the Pf_120h_%Growth_Rep2 in assay [3] (setting [15]) was 112.77%.

In turn, `CC(=O)NCCc1ccc(O)cc1` [Acetyltyramine, N-] gave a Pf_72h_%Growth_Rep1 in assay [1] (setting [4]) of 85.43%. Also, the Pf_72h_%Growth_Rep2 in assay [1] (setting [5]) is 84.08%. In assay [2] (setting [6]), this compound displayed a Tg_72h_%Growth_Rep1 of 171.49%. Besides, in assay [2] (setting [7]), the Tg_72h_%Growth_Rep2 was 89.14%. Besides, in assay [3] (setting [8]), the Pf_120h_%Growth_Rep1 came out at 85.62%. This compound had a Pf_120h_%Growth_Rep2 in assay [3] (setting [9]) of 81.27%.

As for `CC[C@H]1CC2CN3CCc4c([nH]c5ccc(OC)cc45)[C@](C(=O)OC)(C2)[C@H]13` (stereo in doubt) [Voacangine], the activity at 2 µg/mL was 86.5% in assay [1] (P. falciparum, 72 h, screen at 2 μg/mL, replicate 1, read-out: Pf_72h_%Growth_Rep1); 89.9% in assay [1] (P. falciparum, 72 h, screen at 2 μg/mL, replicate 2, read-out: Pf_72h_%Growth_Rep2); 164% in assay [3] (P. falciparum, 120 h, screen at 2 μg/mL, replicate 1, read-out: Pf_120h_%Growth_Rep1); 91% in assay [3] (P. falciparum, 120 h, screen at 2 μg/mL, replicate 2, read-out: Pf_120h_%Growth_Rep2). For the same compound, the percent parasite growth at 2 µg/mL in assay [2] (T. gondii, screen at 2 μg/mL, replicate 1, read-out: Tg_72h_%Growth_Rep1) came to 89.9%; in assay [2] (T. gondii, screen at 2 μg/mL, replicate 2, read-out: Tg_72h_%Growth_Rep2), 96.7%.

In assay [1] (P. falciparum, 72 h, screen at 2 μg/mL, replicate 1), `O=C1N[C@@H](Cc2ccc(O)cc2)C(=O)N2CCC[C@@H]12` [Cyclo(L-Pro-L-Tyr)] showed a Pf_72h_%Growth_Rep1 of 91.38%. Besides, the Pf_72h_%Growth_Rep2 in assay [1] (P. falciparum, 72 h, screen at 2 μg/mL, replicate 2) is 88.30%. This compound also had a Tg_72h_%Growth_Rep1 in assay [2] (T. gondii, screen at 2 μg/mL, replicate 1) of 132.28%. The Tg_72h_%Growth_Rep2 in assay [2] (T. gondii, screen at 2 μg/mL, replicate 2) came to 86.77%. Also, the Pf_120h_%Growth_Rep1 in assay [3] (P. falciparum, 120 h, screen at 2 μg/mL, replicate 1) worked out at 89.64%. In assay [3] (P. falciparum, 120 h, screen at 2 μg/mL, replicate 2), this compound displayed a Pf_120h_%Growth_Rep2 of 119.86%.

Compound `CON=C1CC2(CC3CC(CC=C(C)CC(C)C=CC=C4COC5C(O)C(C)=CC(C(=O)O3)C45O)O2)OC(C(C)=CC(C)C)C1C` (centres unmarked) [BIA-M1298] showed a Pf_72h_%Growth_Rep1 in assay [1] (P. falciparum 3D7, 72 h, parasite screen at 2 μg/mL, % growth, replicate 1) of 17.45%. For the same compound, the Pf_72h_%Growth_Rep2 in assay [1] (P. falciparum 3D7, 72 h, parasite screen at 2 μg/mL, % growth, replicate 2) is listed as -0.02%. The compound also came in with a Tg_72h_%Growth_Rep1 in assay [2] (T. gondii, parasite screen at 2 μg/mL, % growth, replicate 1) of 102.84%. The Tg_72h_%Growth_Rep2 in assay [2] (T. gondii, parasite screen at 2 μg/mL, % growth, replicate 2) turned out to be 95.78%. Besides, in assay [3] (P. falciparum 3D7, 120 h, parasite screen at 2 μg/mL, % growth, replicate 1), the Pf_120h_%Growth_Rep1 is recorded as -5.10%. For the same compound, the Pf_120h_%Growth_Rep2 in assay [3] (P. falciparum 3D7, 120 h, parasite screen at 2 μg/mL, % growth, replicate 2) was determined as 5.91%.

`O=c1cc(CO)occ1O` [BIA-K1696]: the Pf_72h_%Growth_Rep1 in assay [1] (setting [10]) turned out to be 83.60%. Besides, in assay [1] (setting [11]), the Pf_72h_%Growth_Rep2 was determined as 96.29%. Moreover, in assay [2] (setting [12]), the Tg_72h_%Growth_Rep1 turned out to be 111.73%. Further, in assay [2] (setting [13]), the Tg_72h_%Growth_Rep2 is recorded as 90.68%. Besides, in assay [3] (setting [14]), the Pf_120h_%Growth_Rep1 was 76.01%. The same compound showed a Pf_120h_%Growth_Rep2 in assay [3] (setting [15]) of 110.07%.

`CO[C@H]1C[C@H](O[C@@H]2/C(C)=C/C[C@@H]3C[C@@H](C[C@]4(CC[C@H](C)[C@@H](C5CCCCC5)O4)O3)OC(=O)[C@@H]3C=C(C)/C(=N/O)[C@H]4OC/C(=C\C=C\[C@@H]2C)[C@]43O)O[C@@H](C)[C@@H]1O` [selamectin, reference compound]: the “selectivity for P. falciparum in the screens” value in assay [1] is “selective for P. falciparum”. The activity at 2 µg/mL was 3.56% in assay [1] (P. falciparum, 72 h, parasite screen 2 μg/mL, % growth, replicate 1, read-out: Pf_72h_%Growth_Rep1); 6.13% in assay [1] (P. falciparum, 72 h, parasite screen 2 μg/mL, % growth, replicate 2, read-out: Pf_72h_%Growth_Rep2); 2.99% in assay [3] (P. falciparum, 120 h, parasite screen 2 μg/mL, % growth, replicate 1, read-out: Pf_120h_%Growth_Rep1); 8.34% in assay [3] (P. falciparum, 120 h, parasite screen 2 μg/mL, % growth, replicate 2, read-out: Pf_120h_%Growth_Rep2). The results for the percent parasite growth at 2 µg/mL in assay [2] (read-out: Tg_72h_%Growth_Rep1) and in assay [2] (read-out: Tg_72h_%Growth_Rep2) were 116% and 78.2%, respectively.
